Measured values from patent US7589213B2 (priority 2007, dated 2009).

What was measured:
EP2 [1] = molecular target: T1, EP2 (Homo sapiens, UniProt P43116); assay: EP2 flipr assay; type: cell-based
From the text: (§1) U.S. patent application Ser. No. 11/553,143, filed on Oct. 26, 2006, incorporated by reference herein, describes the methods used to obtain the in vitro data in the table below.

EP2 [2] = molecular target: T1, EP2; assay: EP2 cAMP assay; type: cell-based
From the text: as §1

EP2 [3] = molecular target: T1, EP2; assay: EP2 binding (Ki)
From the text: as §1

hFP = hFP (Homo sapiens, UniProt P43088); assay: Other receptors functional EC50, hFP; type: cell-based
From the text: as §1

hTP = molecular target: T2, hTP (Homo sapiens, UniProt P21731); assay: Other receptors functional EC50, hTP; type: cell-based
T2 sequence (P21731 1-343): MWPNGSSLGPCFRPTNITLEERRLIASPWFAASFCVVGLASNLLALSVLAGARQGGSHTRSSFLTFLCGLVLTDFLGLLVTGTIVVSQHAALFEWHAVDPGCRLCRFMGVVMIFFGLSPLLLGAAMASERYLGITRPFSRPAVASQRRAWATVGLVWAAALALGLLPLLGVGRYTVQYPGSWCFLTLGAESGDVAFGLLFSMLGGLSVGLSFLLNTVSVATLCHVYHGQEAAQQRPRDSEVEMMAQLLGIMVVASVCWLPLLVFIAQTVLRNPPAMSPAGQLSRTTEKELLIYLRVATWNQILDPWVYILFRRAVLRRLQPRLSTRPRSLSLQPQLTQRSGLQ
From the text: as §1

hDP = molecular target: T3, hDP (Homo sapiens, UniProt Q13258); assay: Other receptors functional EC50, hDP; type: cell-based
T3 sequence (Q13258 1-359): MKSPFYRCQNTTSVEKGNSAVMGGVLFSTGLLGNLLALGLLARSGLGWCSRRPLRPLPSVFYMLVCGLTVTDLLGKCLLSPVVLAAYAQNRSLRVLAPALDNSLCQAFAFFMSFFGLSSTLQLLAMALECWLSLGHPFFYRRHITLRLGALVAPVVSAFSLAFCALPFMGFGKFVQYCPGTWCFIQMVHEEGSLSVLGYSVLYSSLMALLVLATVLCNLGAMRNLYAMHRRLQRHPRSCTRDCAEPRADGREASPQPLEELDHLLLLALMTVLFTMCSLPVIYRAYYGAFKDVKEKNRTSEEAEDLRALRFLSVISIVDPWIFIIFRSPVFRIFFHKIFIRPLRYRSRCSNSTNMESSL
From the text: as §1

T1 sequence (P43116 whole entry): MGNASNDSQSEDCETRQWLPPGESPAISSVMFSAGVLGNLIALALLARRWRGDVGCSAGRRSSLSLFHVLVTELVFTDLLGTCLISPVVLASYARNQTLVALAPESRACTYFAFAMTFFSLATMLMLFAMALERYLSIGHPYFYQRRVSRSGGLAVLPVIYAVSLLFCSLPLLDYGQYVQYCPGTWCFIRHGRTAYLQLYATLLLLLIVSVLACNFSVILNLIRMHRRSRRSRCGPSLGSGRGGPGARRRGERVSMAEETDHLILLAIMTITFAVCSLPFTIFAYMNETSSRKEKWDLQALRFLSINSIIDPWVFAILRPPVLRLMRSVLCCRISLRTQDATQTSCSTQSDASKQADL
Chain of hFP (P43088 whole entry): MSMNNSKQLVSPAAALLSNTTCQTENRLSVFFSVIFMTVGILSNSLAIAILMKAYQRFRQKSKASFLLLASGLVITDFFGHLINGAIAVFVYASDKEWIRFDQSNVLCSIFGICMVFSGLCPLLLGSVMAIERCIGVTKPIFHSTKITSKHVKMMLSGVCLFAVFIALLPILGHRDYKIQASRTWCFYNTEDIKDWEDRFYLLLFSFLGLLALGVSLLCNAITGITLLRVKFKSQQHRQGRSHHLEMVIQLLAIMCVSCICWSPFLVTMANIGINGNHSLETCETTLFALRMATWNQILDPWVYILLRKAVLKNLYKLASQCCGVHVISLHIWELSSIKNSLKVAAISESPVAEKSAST

- EC50 (EP2 [1]): 5.89 µM
- EC50 (EP2 [2]): 0.038 µM
- Ki (EP2 [3]): 0.215 µM
- EC50 (hFP): > 10000 nM
- EC50 (hTP): > 10000 nM
- EC50 (hDP): 4640 nM
SMILES: O=C(O)c1ccc(COC[C@H]2CCC(=O)N2c2ccc(-c3nccs3)cc2)s1 [compound 58, (R)-5-(((5-oxo-1-(4-(thiazol-2-yl)phenyl)pyrrolidin-2-yl)methoxy)methyl)thiophene-2-carboxylic acid]
